# Source: patent US20250146011A1, “HERBICIDE-RESISTANT CAMELINA SATIVA PLANTS, AND VARIANT CAMELINA ACETOHYDROXYACID SYNTHASE POLYPEPTIDES” (Smart Earth Camelina Corp., priority 2019, published 2025)
# “And” between values parts separate entries of the source, which are not always exact repeats. Identical values can stand only once.
# Legend:
# Assay in all cases: AHAS product feedback inhibition assay
# Format in all cases: biochemical, Camelina sativa
# AHAS of 14CS0851-01-14 = conditions: for sensitivity of AHAS to feedback inhibition, comparison of enzyme extracts: 14CS0851-01-14 vs SRS 934 and MIDAS, 1 mM, 10 mM; for Absorbance reading (530 nm), raw data: single reps
# Method: (§1) Briefly, for each of the three comparators, leaf and stem (petiole) material was bulk-harvested at the 3-4 leaf stage from at least 30 plantlets, snap-frozen in liquid nitrogen, and stored at −80° C. The AHAS in vitro assay was conducted according to the method of Singh et al (1988), with modifications by Yu (2010) and Rustgi (2014). For each comparator, 4 grams of frozen material were ground to a fine powder with a mortar and pestle in liquid nitrogen and homogenized in 1 volume of cold extraction buffer containing 100 mM potassium phosphate buffer (pH7.5), 10 mM sodium pyruvate, 5 mM MgCl2, 100 μM flavin adenine dinucleotide (FAD), and 10% glycerol. Four 2-mL microcentrifuge tubes were used for each comparator. The homogenate was centrifuged at 13,000 rpm for 10 min at 4° C., supernatant collected and re-centrifuged for an additional 10 minutes under the same conditions. For each tube, 1 mL of supernatant was pipetted into a new 2-mL microcentrifuge tube, and protein was precipitated by the addition of 1 mL of saturated ammonium sulfate. The solution was mixed well by vortex and allowed to stand on ice for 20 minutes, then centrifuged at 13,000 rpm at 4° C. The protein pellet was resuspended in 300 μL of reaction buffer containing 50 mM potassium phosphate buffer (pH7.5), 100 mM sodium pyruvate, 10 mM MgCl2, 1 mM EDTA, 10 μM FAD, 100 mM NaCl, and 1 mM thiamine pyrophosphate. Tubes of each comparator were combined, mixed well, kept on ice and immediately used in the AHAS activity and feedback inhibition assays.
# (§2) Total protein concentration of the crude extract was determined by the Bradford method (Bradford, 1976). All assays were conducted using 300 μg of total protein each.
# (§3) […] (2010). The reaction mixture contained 50 μL enzyme extract and 50 μL 100 mM sodium pyruvate and inhibitor amino acid. The reaction was incubated at 37° C. for 60 minutes, then stopped and acetolactate converted to acetoin with the addition of 20 μL of 6 N H2SO4 and incubated at 60° C. for 15 minutes. A separate background “blank” was included for each sample group by adding 20 μL of 6 N H2SO4 prior to the addition of the enzyme extracts. Then, 95 μL of 0.55% w/v creatine solution and 95 μL of α-naphthol solution (5.5% w/v in 5 N NaOH) were added and the mixture incubated at 60° C. for a further 15 minutes. After cooling to room temperature for 15 minutes, enzyme activity was determined colorimetrically by reading the absorbance at 530 nm. Three independent experiments were conducted. Experiment 1 and 2 each contained 2 technical replicates, while experiment 3 included 3 technical replicates.
# AHAS of MIDAS = conditions: for Absorbance reading (530 nm), raw data: single reps
# Method: as §1, §2, §3
# AHAS of SRS 934 = conditions: 30 (mM) amino acid; for Absorbance reading (530 nm), raw data: single reps
# Method: as §1, §2, §3
# [1] = Experiment 1, 30 (mM) amino acid
# [2] = Experiment 2, 30 (mM) amino acid
# [3] = Experiment 2, 100 mM amino acid
# [4] = Experiment 3, 30 (mM) amino acid
smiles,measurement,setting,value
CC[C@H](C)[C@H](N)C(=O)O [isoleucine],"sensitivity of AHAS to feedback inhibition, comparison of enzyme extracts",AHAS of 14CS0851-01-14; 100 mM amino acid,no significant difference
same,"Absorbance reading (530 nm), AVG of reps",AHAS of 14CS0851-01-14; [1],0.209
same,"Absorbance reading (530 nm), raw data",AHAS of 14CS0851-01-14; [1],0.201 and 0.217
same,"Absorbance reading (530 nm), AVG of reps",AHAS of 14CS0851-01-14; [2],0.186
same,"Absorbance reading (530 nm), raw data",AHAS of 14CS0851-01-14; [3],0.170
same,"Absorbance reading (530 nm), raw data",AHAS of 14CS0851-01-14; [2],0.200 and 0.171
same,"Absorbance reading (530 nm), AVG of reps",AHAS of 14CS0851-01-14; [4],0.088
same,"Absorbance reading (530 nm), raw data",AHAS of 14CS0851-01-14; [4],0.087 and 0.082 and 0.094
same,"Absorbance reading (530 nm), AVG of reps",AHAS of MIDAS; [1],0.2675
same,"Absorbance reading (530 nm), raw data",AHAS of MIDAS; [1],0.275 and 0.26
same,"Absorbance reading (530 nm), AVG of reps",AHAS of MIDAS; [3],0.163
same,"Absorbance reading (530 nm), raw data",AHAS of MIDAS; [2],0.208 and 0.176
same,"Absorbance reading (530 nm), AVG of reps",AHAS of MIDAS; [4],0.103
same,"Absorbance reading (530 nm), raw data",AHAS of MIDAS; [4],0.100 and 0.107 and 0.102
same,"Absorbance reading (530 nm), AVG of reps",AHAS of SRS 934; Experiment 1,0.234
same,"Absorbance reading (530 nm), raw data",AHAS of SRS 934; Experiment 1,0.233
same,"Absorbance reading (530 nm), AVG of reps",AHAS of SRS 934; Experiment 2,0.187
same,"Absorbance reading (530 nm), raw data",AHAS of SRS 934; Experiment 2,0.219 and 0.154
same,"Absorbance reading (530 nm), AVG of reps",AHAS of SRS 934; Experiment 3,0.033
same,"Absorbance reading (530 nm), raw data",AHAS of SRS 934; Experiment 3,0.100
CC(C)C[C@H](N)C(=O)O [leucine],"sensitivity of AHAS to feedback inhibition, comparison of enzyme extracts",AHAS of 14CS0851-01-14; 100 mM amino acid,no significant difference
same,"Absorbance reading (530 nm), AVG of reps","AHAS of 14CS0851-01-14; Experiment 1, 100 mM amino acid",0.143
